Structures can show the parent of a compound that is named as a salt.
Legend:
[1] = system: Staphylococcus aureus Xen 36; assay: In-vivo infection prevention study: microbiological analysis of explanted tissue
Protocol: (§1) Bioluminescent strain Staphylococcus aureus Xen 36 (Caliper LifeSciences, Alameda, CA) was used to develop bone infection. The strain was stored in a glycerol (20% v/v) and Brain Heart Infusion (BHI) suspension at -80°C until required. Bacteria were subcultured onto an LB plate (Luria-Bertani, Miller broth mixed with 1.2% (w/v) Technical Agar (Difco, Sparks, MD.)), at 37°C overnight. Five colonies were then transferred to 3 mL LB broth and grown in shaker incubator (200 rpm), at 37°C for 2.5 h. Two milliliters of the bacterial suspension was transferred to 100 mL LB broth and grown for a further 4 h, until the cells reached exponential growth. Bacterial suspension was transferred into 50 mL centrifuge tubes and cells centrifuged at ~3,000 rpm for 30 min. Supernatants were discarded and pellets were re-suspended in 15 mL Phosphate Buffered Saline (PBS). Cells were then mixed by vortexing and the centrifugation process was repeated. This cell washing process was repeated three times. The final washed and pelleted cells were re-suspended in a total of 10 mL PBS, and mixed by vortexing. The cell suspension was then ten-fold serially diluted. The concentration of the cell suspension was then determined using the spread plate technique and spreading 100 μL of the various dilutions onto LB plates, in duplicate. Plates were incubated at 37°C overnight before counting colony forming units (CFU). The viable count was then used to dilute the washed cell suspension to the desired concentrations (i.e., average Log10 7.82 CFU/mL or 6.62x10^7 CFU/mL) using PBS. Two hundred microliter aliquots were dispensed into microfuge tubes and labeled bacterial inoculum. To inoculate the rat tibias the bacterial inoculum was mixed with equal volume of 1% (w/v) molten agarose (Pulsed field certified agarose, Biorad, Hercules, CA). Mixing the bacteria with agarose helped to control seepage of the inoculum and minimize contamination of the surrounding muscle.
After sacrificing the rats, the tibia and gastrocnemius muscle surrounding the surgical site were explanted, weighed separately and flash frozen with liquid nitrogen prior to pulverizing in a freezer mill (6770 Spex SamplePrep, Metuchen, NJ.). The powdered samples were then re-weighed, suspended (i.e., 1:10) in phosphate buffered saline (PBS), vortexed, and 10-fold serially diluted before plating (in duplicate) 100 μL of suspensions onto LB plates (Luria-Bertani, Miller broth mixed with 1.2% (w/v) Technical Agar (Difco, Sparks, MD.)). Plates were incubated at 37°C for 18–24 h and the bacterial load (colony forming units) per sample was calculated based on the number of colonies seen at specific dilutions. Confirmation of isolating S. aureus Xen 36 colonies from samples was determined using the IVIS (Lumina II, Caliper Life Science, Hopkinton, MA.). Non-bioluminescent colonies were confirmed as S. aureus using Gram staining, catalase test and Color Staph ID kit (Sure-Vue, Fisher Scientific, Houston TX.).

[2] = system: osteosarcoma cell line MG-63; parameters: method as in Edin et al. [38]; conditions: MG-63 in vitro; ref Edin et al. [38]; cited from earlier work
[3] = system: chondrocyte (N1511) cells; parameters: method as in Antoci et al. [39]; conditions: ref Antoci et al. [39]; cited from earlier work
[4] = system: osteoblast (MC3T3-E1) cells; parameters: method as in Antoci et al. [39]; conditions: ref Antoci et al. [39]; cited from earlier work
[5] = system: human corneal endothelial cells; parameters: method as in Yoeruek et al. [40]; conditions: ref Yoeruek et al. [40]; cited from earlier work
[6] = patient with normal renal function, intravenous infusion; ref [11], [21]; cited from earlier work
[7] = system: Staphylococcus aureus Xen 36; assay: In-vivo infection prevention study: X-ray and micro-CT signs of tibial osteomyelitis
Protocol: as §1, with “The viable count was then used to dilute the washed cell suspension to the desired concentrations (i.e., average Log10 7.82 CFU/mL or 6.62x10^7 CFU/mL) using PBS. Two hundred microliter aliquots were dispensed into microfuge tubes and labeled bacterial inoculum. To inoculate the rat tibias the bacterial inoculum was mixed with equal volume of 1% (w/v) molten agarose (Pulsed field certified agarose, Biorad, Hercules, CA). Mixing the bacteria with agarose helped to control seepage of the inoculum and minimize contamination of the surrounding muscle.” left out

Compound: CN[C@H](CC(C)C)C(=O)N[C@H]1C(=O)N[C@@H](CC(N)=O)C(=O)N[C@H]2C(=O)N[C@H]3C(=O)N[C@H](C(=O)N[C@H](C(=O)O)c4cc(O)cc(O)c4-c4cc3ccc4O)[C@H](O)c3ccc(c(Cl)c3)Oc3cc2cc(c3O[C@@H]2O[C@H](CO)[C@@H](O)[C@H](O)[C@H]2O[C@H]2C[C@](C)(N)[C@H](O)[C@H](C)O2)Oc2ccc(cc2Cl)[C@H]1O [vancomycin, vancomycin hydrochloride]
- Viable bacteria in tibia of treated rats ([1]; rat tibia inoculated with S. aureus Xen 36, single 25 mg/Kg intramedullary dose, end of 14-day study): < 200 CFU/g
- Signs of infection around the surgical site ([1]; rat, S. aureus Xen 36, prophylactic single 25 mg/Kg intramedullary dose, 14 days): no signs of infection
- Bacteria in the muscle and plasma samples of treated rats ([1]; rat, S. aureus Xen 36, single 25 mg/Kg intramedullary dose, end of study): No bacteria were detected
- Ave Log10 CFU/muscle ([1]; treated rats, explanted muscle at end of 14-day study, mean of n = 9, values of 100 CFU = below detection limit): 2.00 Log10 CFU/muscle
- Ave Log10 CFU/tibia ([1]; treated rats, explanted tibia at end of 14-day study, mean of n = 9, values of 100 CFU = below detection limit): 2.09 Log10 CFU/tibia
- Log10 CFU/tibia ([1]; treated, end of study, rat K-11, 2.00 = below detection limit): 2.81 Log10 CFU/tibia
- Vancomycin concentration that caused cell death [2]: 10 mg/mL
- Doses that severely decreased cellular proliferation [3]: greater than 2 mg/mL
- Doses that severely decreased cellular proliferation [4]: greater than 2 mg/mL
- Vancomycin concentrations leading to near total destruction [5]: over 10 mg/mL
- Vancomycin concentrations leading to significant reductions in viability [5]: higher than 5 mg/mL
- Elimination half-life [6]: approximately 6 hours
- Vancomycin treated rats displaying radiographic signs of osteomyelitis ([7]; rat tibia inoculated with S. aureus Xen 36 (Log10 5.5 CFU/5 μL) with simultaneous single 25 mg/Kg intramedullary dose, 14 days, n = 9): zero
- Micro CT evaluation of treated rats ([7]; rat tibia inoculated with S. aureus Xen 36, single 25 mg/Kg intramedullary dose, compared to untreated controls): absent of any signs of osteomyelitis

Reference: PMC4966941 (PLoS ONE, 2016)
